From patent US20100184751A1, “HETEROCYCLIC COMPOUNDS FOR THE TREATMENT OF TUBERCULOSIS” (priority 2007, published 2010) come the findings set out here.

Structures can show the parent of a compound that is named as a salt. Where two headings read alike, the source gives them in different places.

A short description of test [1]: General antimicrobial activity assay (whole-cell broth microdilution MIC, CLSI M7-A7). Type of test: cell-based. (In general: Dilution methods test growth across graded concentrations, often in twofold steps.)
The subject of test [2] is Mycobacterium tuberculosis H37Rv. The experiment in a line: Mycobacterium tuberculosis H37Rv inhibition assay (resazurin MIC). The class given is cell-based. The conditions noted are these: ATCC 25618 / H37Rv, H37Rv strain (ATCC25618), Middlebrook 7H9, 37° C., six days, resazurin fluorescence after 48 hours, read-out: MIC value. A general note: Alamar Blue is a resazurin reagent that responds to reducing activity.

By MIC is commonly meant the lowest concentration found to suppress growth. With `COc1cnc2ccc(=O)n3c2c1[C@](O)(CN1CCC(NCc2cc4c(cn2)OCCO4)CC1)C3` [Example 65], the MIC in test [1] was no more than 8 µg/mL.
Turning to `COc1cnc2ccc(=O)n3c2c1[C@](O)(CN1CCC(NCc2cc4c(nn2)OCCO4)CC1)C3` [Example 66], in test [1] (read-out: MIC values), the MIC is greater than 16 µg/mL.
`O=c1[nH]c2ccccc2nc1CNC1CCN(C[C@]2(O)Cn3c(=O)ccc4ncc(F)c2c43)CC1` [Example 38] had an MIC in test [1] of less than 4 µg/mL.
Same read-out and setting: to `O=c1[nH]c(CNC2CCN(C[C@]3(O)Cn4c(=O)ccc5ncc(F)c3c54)CC2)nc2ccccc12` [Example 39] belongs less than 4 µg/mL; to `O=c1c(Cl)cc2ncc(F)c3c2n1CC3(O)CN1CCC(NCc2cc3c(cn2)OCCO3)CC1` (racemic) [Example 24, (4R/S)-8-Chloro-4-({4-[(2,3-dihydro[1,4]dioxino[2,3-c]pyridin-7-ylmethyl)amino]-1-piperidinyl}methyl)-3-fluoro-4-hydroxy-4,5-dihydro-7H-pyrrolo[3,2,1-de]-1,5-naphthyridin-7-one Dihydrochloride], less than 4 µg/mL.
As to `O=C1COc2cc(Cl)c(CNC3CCN(C[C@]4(O)Cn5c(=O)ccc6ncc(F)c4c65)CC3)nc2N1` [Example 40, (4S)-4-[(4-{[(7-chloro-3-oxo-3,4-dihydro-2H-pyrido[3,2-b][1,4]oxazin-6-yl)methyl]amino}-1-piperidinyl)methyl]-3-fluoro-4-hydroxy-4,5-dihydro-7H-pyrrolo[3,2,1-de]-1,5-naphthyridin-7-one], the figures for the minimum inhibitory concentration (MIC) in test [2] (144 h) and in test [2] were no more than 4 µg/mL and no more than 1.7 µg/mL, respectively.
On the same counts, the results for `O=c1ccc2ncc(F)c3c2n1C[C@@]3(O)CN1CCC(NCc2cc3c(nn2)SCCO3)CC1` [Example 19, (4S)-4-({4-[(6,7-Dihydro[1,4]oxathiino[3,2-c]pyridazin-3-ylmethyl)amino]-1-piperidinyl}methyl)-3-fluoro-4-hydroxy-4,5-dihydro-7H-pyrrolo[3,2,1-de]-1,5-naphthyridin-7-one (E1 Enantiomer Series) Dihydrochloride] are no more than 4 µg/mL and no more than 1.7 µg/mL.
For `O=c1ccc2ncc(F)c3c2n1C[C@@]3(O)CN1CCC(NCc2ccc3nonc3c2)CC1` [Example 48, (4S)-4-({4-[(2,1,3-benzoxadiazol-5-ylmethyl)amino]-1-piperidinyl}methyl)-3-fluoro-4-hydroxy-4,5-dihydro-7H-pyrrolo[3,2,1-de]-1,5-naphthyridin-7-one], the MIC in test [2] (144 h) is no more than 4 µg/mL; in test [2], no more than 1.7 µg/mL.
With `CC(C)n1nnc2cc(CNC3CCN(C[C@]4(O)Cn5c(=O)ccc6ncc(F)c4c65)CC3)ccc21` [Example 47], the MIC in test [1] is no more than 8 µg/mL.
Take `O=C1CSc2ccc(CNC3CCN(C[C@]4(O)Cn5c(=O)ccc6ncc(F)c4c65)CC3)nc2N1` [Example 6, (4S)-3-Fluoro-4-hydroxy-4-[(4-{[(3-oxo-3,4-dihydro-2H-pyrido[3,2-b][1,4]thiazin-6-yl)methyl]amino}-1-piperidinyl)methyl]-4,5-dihydro-7H-pyrrolo[3,2,1-de]-1,5-naphthyridin-7-one (E1 Enantiomer Series) Dihydrochloride]: the MIC in test [2] (144 h) was no more than 4 µg/mL; in test [2], no more than 1.7 µg/mL.
As for `O=c1ccc2ncc(F)c3c2n1C[C@@]3(O)CN1CCC(NCc2ncc3c(n2)OCCO3)CC1` [Example 69, (4S)-4-({4-[6,7-dihydro[1,4]dioxino[2,3-d]pyrimidin-2-ylmethyl]amino]-1-piperidinyl}methyl)-3-fluoro-4-hydroxy-4,5-dihydro-7H-pyrrolo[3,2,1-de]-1,5-napthyridin-7-one (E1 Enantiomer Series) Dihydrochloride], the MIC in test [2] (144 h) was no more than 4 µg/mL.
With `O=c1ccc2ncc(F)c3c2n1CC3(F)CN1CCC(NCc2cc3c(nn2)OCCC3)CC1` (stereo not drawn) [Example 33, 4-({4-[(6,7-Dihydro-5H-pyrano[2,3-c]pyridazin-3-ylmethyl)amino]-1-piperidinyl}methyl)-3,4-difluoro-4,5-dihydro-7H-pyrrolo[3,2,1-de]-1,5-naphthyridin-7-one Dihyclrochloride (E1 Enantiomer)], the MIC in test [2] (144 h) was no more than 4 µg/mL.
